The test system of one assay is Aspergillus terreus. Description: MIC, YAG medium, Aspergillus terreus. Format: cell-based. The following applies: Aspergillus terreus; YAG medium; read-out: MIC A Terreus 4. In outline:
(§1)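 Doubling dilutions (50-0.05 mg/L) were tested against Candida in RPMI with 2% glucose and 0.135M MOPS, pH7.0, at 1-2×10^3 cfu/ml for 24-48 hrs, 35° C; MIC is >80% inhibition at OD485. Aspergillus in YAG medium at 1-2×10^4 cfu/ml for 24 hrs was scored at >70% inhibition; low MICs were retested over 0.5-0.0005 mg/L.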

Assay [1] relates to Aspergillus fumigatus AF210. As to the kind of experiment: MIC, YAG medium, Aspergillus fumigatus AF210. In kind it is cell-based. The following applies: Aspergillus fumigatus, AF210; YAG medium; read-out: MIC A Fum. 210. The method in brief:
as §1

The test system of assay [2] is Aspergillus fumigatus AF293. As to the kind of experiment: MIC, YAG medium, Aspergillus fumigatus AF293. Format: cell-based. The following applies: Aspergillus fumigatus, AF293; YAG medium; read-out: MIC A Fum. 293. The method in brief:
as §1

Another assay deals with Aspergillus flavus. As to the kind of experiment: MIC, YAG medium, Aspergillus flavus. The following applies: Aspergillus flavus; YAG medium; read-out: MIC A Flavus 01. Format: cell-based. In outline:
as §1

The subject of a further assay is Aspergillus niger. As to the kind of experiment: MIC, YAG medium, Aspergillus niger. The following applies: Aspergillus niger; YAG medium; read-out: MIC A Niger 1. Format: cell-based. The method in brief:
as §1

Another assay relates to A Terreus 49. Description: MIC, YAG medium, A Terreus 49. Format: cell-based, Aspergillus terreus. The following applies: Aspergillus terreus; YAG medium; read-out: MIC A Terreus 49. Here is the method: Measurement of Minimum Inhibitory Concentrations (MICs)
Between 1 and 5 mgs of compound were accurately weighed out into a sterile Eppendorf tube. The compound was dissolved in DMSO to give a solution containing 5 mg/ml. Tubes were stored at −20° C. until required.
On the day of testing thawed solutions were vortex mixed to ensure homogeneity. 30 μl of solution was removed and added to 570 μl of sterile water in a separate sterile Eppendorf. The thoroughly mixed solution was used to prepare a series of doubling dilutions in water, in a deep well plate. Eleven replicate plates were prepared using a Minitrak by aspirating 20 μl from each well into eleven clear polystyrene 96 well plates.
Spores of Aspergillus spp (Aspergillus fumigatus, Aspergillus terreus, Aspergillus niger and Aspergillus flavus) were harvested from cultures grown on Sabarauds agar for 5 days, and resuspended in PBS/Tween 80 to approx 1×10^7 cfu/ml Other filamentous fungi (Fusarium solani, Scedosporium spp., Trichophyton spp., Absidia corymbifera), were grown on Sabarauds agar for 2-10 days and spores/hyphae resuspended in PBS/Tween to give approx 1×10^7 cfU/ml. Candida species (Candida albicans, Candida glabrata, Candida krusei, Candida parapsilosis and Candida tropicalis) were grown on Sabarauds agar, cells were harvested from the agar using a sterile loop and resuspended in PBS/Tween 80 to approx 1×10^6 cfu/ml. Each organism suspension was diluted in RPMI medium, containing 2% glucose and 0.135M MOPS buffer (pH7.0) to 2×10^4 cfu/ml for Aspergillus spp and other filamentous fungi and 2×10^3 cfu/ml for yeast. 80 μl of an organism suspension was added to each well of the plate containing drug dilutions.
This produced MIC plates with a drug range 50-0.05 mg/L and organism inocula of 1-2×10^4 cfu/ml for Aspergillus spp and other filamentous fungi and 1-2×10^3 cfu/ml for yeasts. All plates were incubated for 24-48 hrs at 35° C. Growth was assessed by monitoring the optical density at 485 nm for each well. The MIC of a compound is the lowest drug concentration that inhibits growth of an organism by >80% compared with a drug free control. MICs are recorded as mg/L. Other growth media can be used for susceptibility testing, and the activity of the described compounds can also be assessed in a medium comprising, 1% glucose, 1% ammonium chloride and 0.5% yeast extract (YAG medium). To perform MIC tests in this medium, dilutions of compounds are prepared in microtitre plates as described above. Fungal strains to be tested are grown and harvested in an identical manner to that described above, each organism suspension is then diluted in YAG medium to 2×10^4 cfu/ml for Aspergillus spp and other filamentous fungi and 2×10^3 cfu/ml for yeast. 80 μl of an organism suspension was added to each well of the plate containing drug dilutions. This produced MIC plates with a drug range 50-0.05 mg/L and organism inocula of 1-2×10^4 cfu/ml for Aspergillus spp and other filamentous fungi and 1-2×10^3 cfu/ml for yeasts. All plates were incubated for 24 hrs at 35° C. Growth was assessed by monitoring the optical density at 485 nm for each well. The MIC of a compound is the lowest drug concentration that inhibits growth of an organism by >70% compared with a drug free control. MICs are recorded as mg/L. In cases where the MIC of an organism is […]0.05 mg/L the MIC is repeated using a concentration range of 0.5-0.0005 mg/L. MIC tests in YAG medium have more clear-cut endpoints and have slightly lower MICS than those performed in RPMI medium.
The following organisms were tested: Aspergillus fumigatus AF293 and Aspergillus fumigatus AF210, Aspergillus niger, Aspergillus terreus, Aspergillus favus, Candida albicans, Candida krusei, Candida tropicalis, Candida glabrata, Candida parapsilosis, Trichophyton rubrum, Trichophyton mentagrophytes, Scedosporium prolificans, Scedosporium apiospermum, Absidia corymbifera, Fusarium solani.

MIC data for eight molecules are collected here from US8486962B2, “Antifungal agents” (F2G Ltd., priority 2005, dated 2013).

In brackets after ≈: the same amount, converted by molar mass. Bounds are passed on as bounds.

A word on the MIC: it is the smallest concentration in the dilution series that meets the test's criterion for growth inhibition.

Turning to `O=C(Nc1ccccc1F)C(=O)c1c(-c2ccccc2)cc2ccccn12` [Example 201, N-(2-Fluoro-phenyl)-2-oxo-2-(2-phenyl-indolizin-3-yl)-acetamide], the MIC was 0.015 µg/mL (≈ 0.0419 µM) with Aspergillus terreus; 0.25 µg/mL (≈ 0.698 µM) in assay [1]; 0.5 µg/mL (≈ 1.4 µM) in assay [2]; 0.12 µg/mL (≈ 0.335 µM) with Aspergillus flavus; 0.015 µg/mL (≈ 0.0419 µM) in the assay with Aspergillus niger; 0.015 µg/mL (≈ 0.0419 µM) in the assay with A Terreus 49.
`CC(O)c1ccc(NC(=O)C(=O)c2c(-c3ccccc3)cc3ccccn23)cc1` (stereo not drawn) [Example 255, N-[4-(1-Hydroxy-ethyl)-phenyl]-2-oxo-2-(2-phenyl-indolizin-3-yl)-acetamide]: the MIC in the assay with Aspergillus terreus is 0.2 µg/mL (≈ 0.52 µM); in assay [1], 0.8 µg/mL (≈ 2.08 µM); in assay [2], 1.6 µg/mL (≈ 4.16 µM); in the assay on Aspergillus flavus, 0.2 µg/mL (≈ 0.52 µM); in the assay with Aspergillus niger, 0.4 µg/mL (≈ 1.04 µM); with A Terreus 49 it was 0.1 µg/mL (≈ 0.26 µM).
Consider `O=C(Nc1cc(Cl)cc(Cl)c1)C(=O)c1c(-c2ccccc2)cc2ccccn12` [Example 220, N-(3,5-Dichloro-phenyl)-2-oxo-2-(2-phenyl-indolizin-3-yl)-acetamide], for which the MIC in the assay on Aspergillus terreus was 0.031 µg/mL (≈ 0.0757 µM); in assay [1], 0.12 µg/mL (≈ 0.293 µM); in assay [2], 0.12 µg/mL (≈ 0.293 µM); in the assay with Aspergillus flavus it was 0.015 µg/mL (≈ 0.0367 µM); in the assay on Aspergillus niger, 0.062 µg/mL (≈ 0.151 µM); with A Terreus 49 it was 0.008 µg/mL (≈ 0.0195 µM).
In the case of `COc1ccc2cc(-c3ccccc3)c(C(=O)C(=O)Nc3ccc(C)cc3)n2c1` [Example 196, 2-(6-Methoxy-2-phenyl-indolizin-3-yl)-2-oxo-N-p-tolyl-acetamide], the MIC in the assay on Aspergillus terreus is 0.12 µg/mL (≈ 0.312 µM); in assay [1], 0.8 µg/mL (≈ 2.08 µM); in assay [2] it was 0.8 µg/mL (≈ 2.08 µM); with Aspergillus flavus, 0.12 µg/mL (≈ 0.312 µM); in the assay on Aspergillus niger, 0.5 µg/mL (≈ 1.3 µM); in the assay on A Terreus 49, 0.062 µg/mL (≈ 0.161 µM).
In the case of `COc1ccc(NC(=O)C(=O)c2c(-c3cccc(Cl)c3)cc3ccccn23)cc1` [Example 235, 2-[2-(3-Chloro-phenyl)-indolizin-3-yl]-N-(4-methoxy-phenyl)-2-oxo-acetamide], the MIC in the assay with Aspergillus terreus was found to be 0.015 µg/mL (≈ 0.0371 µM); in assay [1], 0.5 µg/mL (≈ 1.24 µM); in assay [2], 0.5 µg/mL (≈ 1.24 µM); in the assay with Aspergillus flavus, 0.031 µg/mL (≈ 0.0766 µM); with Aspergillus niger, 0.12 µg/mL (≈ 0.296 µM); with A Terreus 49, 0.008 µg/mL (≈ 0.0198 µM).
`CN(C)c1ccc(NC(=O)C(=O)c2c(-c3cccnc3)cc3ccccn23)cn1` [Example 253, N-(6-Dimethylamino-pyridin-3-yl)-2-oxo-2-(2-pyridin-3-yl-indolizin-3-yl)-acetamide]: the MIC was 12.5 µg/mL (≈ 32.4 µM) in the assay with Aspergillus terreus; above 50 µg/mL in assay [1]; above 50 µg/mL in assay [2]; 25 µg/mL (≈ 64.9 µM) with Aspergillus flavus; above 50 µg/mL in the assay on Aspergillus niger; 12.5 µg/mL (≈ 32.4 µM) with A Terreus 49.
For `CC(C)(C#N)c1cccc(NC(=O)C(=O)c2c(-c3ccccc3)cc3ccccn23)c1` [Example 228, N-[3-(Cyano-dimethyl-methyl)-phenyl]-2-oxo-2-(2-phenyl-indolizin-3-yl)-acetamide], the MIC was found to be 0.004 µg/mL (≈ 0.00982 µM) in the assay with Aspergillus terreus; 0.031 µg/mL (≈ 0.0761 µM) in assay [1]; 0.031 µg/mL (≈ 0.0761 µM) in assay [2]; 0.004 µg/mL (≈ 0.00982 µM) with Aspergillus flavus; 0.015 µg/mL (≈ 0.0368 µM) in the assay with Aspergillus niger; 0.002 µg/mL (≈ 0.00491 µM) in the assay on A Terreus 49.
Regarding `COc1ccc(NC(=O)C(=O)c2c(-c3ccccc3)cc3ccccn23)cn1` [Example 146, N-(6-Methoxy-pyridin-3-yl)-2-oxo-2-(2-phenyl-indolizin-3-yl)-acetamide], the MIC was found to be 0.062 µg/mL (≈ 0.167 µM) with Aspergillus terreus; 0.5 µg/mL (≈ 1.35 µM) in assay [1]; 0.5 µg/mL (≈ 1.35 µM) in assay [2]; 0.062 µg/mL (≈ 0.167 µM) with Aspergillus flavus; 0.25 µg/mL (≈ 0.673 µM) with Aspergillus niger; 0.03 µg/mL (≈ 0.0808 µM) with A Terreus 49.
